# Laboratory results from patent US8039621B2, “Process for preparing anhydrous Aripirazole type I” (Cambrex Charles City, Inc., priority 2006, dated 2011).
# Assay: Hygroscopicity of dried anhydrous aripiprazole Type I crystals
# Format: physicochemical
# Details: vacuum of 22 inches Hg
# Experimental: […] A dish of phosphorous pentoxide (dessicant) also was placed in the oven. Periodically, approximately a one (1) gram sample of the aripiprazole wet cake was removed from the oven and analyzed for moisture content by the volumetric Karl Fischer titration method and also for its hygroscopicity. At the end of the 40 hour period, the moisture content of the final sample was analyzed using the coulometric Karl Fischer titration method and the hygroscopicity of the sample also was determined.
# Another portion of the aripiprazole wet cake (20 g), prepared in accordance with the above-described procedure, was placed in a drying oven, the oven maintained at a temperature between 70 to 80° C., and under a vacuum of 22 inches Hg for a period of 40 hours. A dish of phosphorous pentoxide (dessicant) also was placed in the oven to facilitate drying. Periodically, approximately a one (1) gram sample of the aripiprazole wet cake was removed from the oven and analyzed for moisture content by the volumetric Karl Fischer titration method and also for its hygroscopicity. At the end of the 40 hours, the moisture content of the final sample was analyzed using the coulometric Karl Fischer titration method and the hygroscopicity of the sample also was determined.
# [1] = final sample after 40 Hours in 60 to 65° C. Oven
# [2] = final sample after 40 Hours in 70 to 80° C. Oven
Compound,Hygroscopicity (%) [1],Hygroscopicity (%) [2]
"O=C1CCc2ccc(OCCCCN3CCN(c4cccc(Cl)c4Cl)CC3)cc2N1 [Batch 3, 7-[4-[4-(2,3-dichlorophenyl)-1-piperazinyl]butoxy]-3,4-dihydro-2-(1H)-quinolinone]",1.8%,0.4%
"O=C1CCc2ccc(OCCCCN3CCN(c4cccc(Cl)c4Cl)CC3)cc2N1 [Batch 2, 7-[4-[4-(2,3-dichlorophenyl)-1-piperazinyl]butoxy]-3,4-dihydro-2-(1H)-quinolinone]",1.2%,0.7%
"O=C1CCc2ccc(OCCCCN3CCN(c4cccc(Cl)c4Cl)CC3)cc2N1 [Batch 1, 7-[4-[4-(2,3-dichlorophenyl)-1-piperazinyl]butoxy]-3,4-dihydro-2-(1H)-quinolinone]",3.2%,0.8%
